Read-outs that look alike come from different tables or passages of the source.
Experiments:
[1] = target: HSV polymerase (Human herpesvirus 1, UniProt P04293); test: HSV polymerase assay (procedure similar to the HCMV polymerase assay); type: biochemical
Description: (§1) The HCMV polymerase assay is performed using a scintillation proximity assay (SPA) as described in several references, such as N. D. Cook, et al., Pharmaceutical Manufacturing International, pages 49-53 (1992); K. Takeuchi, Laboratory Practice, September issue (1992); U.S. Pat. No. 4,568,649 (1986); which are incorporated by reference herein. Reactions are performed in 96-well plates. The assay is conducted in 100 μl volume with 5.4 mM HEPES (pH 7.5), 11.7 mM KCl, 4.5 mM MgCl2, 0.36 mg/ml BSA, and 90 nM ^3 H-dTTP. Assays are run with and without CHAPS, (3-[(3-Cholamidopropyl)-dimethylammonio]-1-propane-sulfonate) at a final concentration of 2 mM. HCMV polymerase is diluted in enzyme dilution buffer containing 50% glycerol, 250 mM NaCl, 10 mM HEPES (pH 7.5), 100 μg/ml BSA, and 0.01% sodium azide. The HCMV polymerase, which is expressed in recombinant baculovirus-infected SF-9 cells and purified according to literature procedures, is added at 10% (or 10 μl) of the final reaction volume, i.e., 100 μl. Compounds are diluted in 50% DMSO and 10 μl are added to each well. Control wells contain an equivalent concentration of DMSO. Unless noted otherwise, reactions are initiated via the addition of 6 nM biotinylated poly(dA)-oligo(dT) template/primer to reaction mixtures containing the enzyme, substrate, and compounds of interest. Plates are incubated in a 25 C or 37 C H2 O bath and terminated via the addition of 40 μl/reaction of 0.5 M EDTA (pH 8) per well. Reactions are terminated within the time-frame during which substrate incorporation is linear and varied depending upon the enzyme and conditions used, i.e., 30 min. for HCMV polymerase. Ten μl of streptavidin-SPA beads (20 mg/ml in PBS/10% glycerol) are added following termination of the reaction. Plates are incubated 10 min. at 37 C, then equilibrated to room temperature, and counted on a Packard Topcount. Linear regressions are performed and IC50 's are calculated using computer software. […]

[2] = target: VZV polymerase (Varicella-zoster virus, UniProt P09252); test: VZV polymerase assay (procedure similar to the HCMV polymerase assay); type: biochemical
Sequence of VZV polymerase (P09252 whole entry): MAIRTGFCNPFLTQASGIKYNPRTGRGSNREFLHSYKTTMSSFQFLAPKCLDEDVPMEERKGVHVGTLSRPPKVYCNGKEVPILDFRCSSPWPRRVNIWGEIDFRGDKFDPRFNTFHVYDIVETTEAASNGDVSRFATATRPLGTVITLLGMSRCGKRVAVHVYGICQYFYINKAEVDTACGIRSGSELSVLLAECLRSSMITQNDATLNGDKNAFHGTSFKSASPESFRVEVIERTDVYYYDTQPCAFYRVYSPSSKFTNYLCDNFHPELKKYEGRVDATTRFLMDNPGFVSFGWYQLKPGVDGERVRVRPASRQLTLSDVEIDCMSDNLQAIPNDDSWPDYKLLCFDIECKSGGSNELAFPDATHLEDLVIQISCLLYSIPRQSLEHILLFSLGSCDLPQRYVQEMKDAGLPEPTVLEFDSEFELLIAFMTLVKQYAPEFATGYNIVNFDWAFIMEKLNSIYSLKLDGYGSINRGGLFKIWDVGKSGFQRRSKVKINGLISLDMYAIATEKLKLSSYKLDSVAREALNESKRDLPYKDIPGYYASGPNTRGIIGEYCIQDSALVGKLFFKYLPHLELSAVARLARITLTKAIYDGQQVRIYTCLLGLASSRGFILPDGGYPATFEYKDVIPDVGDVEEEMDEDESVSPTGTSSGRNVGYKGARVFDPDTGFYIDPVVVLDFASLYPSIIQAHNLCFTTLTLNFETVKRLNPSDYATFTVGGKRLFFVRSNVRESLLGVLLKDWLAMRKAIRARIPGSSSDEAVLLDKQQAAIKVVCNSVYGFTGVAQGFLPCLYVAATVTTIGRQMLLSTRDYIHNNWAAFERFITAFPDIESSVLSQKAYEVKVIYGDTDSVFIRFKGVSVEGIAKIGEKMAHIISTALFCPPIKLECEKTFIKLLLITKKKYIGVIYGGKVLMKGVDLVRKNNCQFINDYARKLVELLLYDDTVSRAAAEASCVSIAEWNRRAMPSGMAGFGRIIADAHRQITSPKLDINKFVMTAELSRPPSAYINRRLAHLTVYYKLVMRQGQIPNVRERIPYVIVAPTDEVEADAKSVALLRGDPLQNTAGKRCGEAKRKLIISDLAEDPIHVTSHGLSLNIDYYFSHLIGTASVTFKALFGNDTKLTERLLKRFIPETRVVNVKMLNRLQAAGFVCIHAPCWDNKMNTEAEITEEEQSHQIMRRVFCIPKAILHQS
Description: as §1

[3] = target: T1, HCMV polymerase (Human cytomegalovirus, UniProt P08546); test: biochemical
T1 construct: made in house; host or cells: recombinant baculovirus-infected SF-9 cells
T1 sequence (P08546 whole entry): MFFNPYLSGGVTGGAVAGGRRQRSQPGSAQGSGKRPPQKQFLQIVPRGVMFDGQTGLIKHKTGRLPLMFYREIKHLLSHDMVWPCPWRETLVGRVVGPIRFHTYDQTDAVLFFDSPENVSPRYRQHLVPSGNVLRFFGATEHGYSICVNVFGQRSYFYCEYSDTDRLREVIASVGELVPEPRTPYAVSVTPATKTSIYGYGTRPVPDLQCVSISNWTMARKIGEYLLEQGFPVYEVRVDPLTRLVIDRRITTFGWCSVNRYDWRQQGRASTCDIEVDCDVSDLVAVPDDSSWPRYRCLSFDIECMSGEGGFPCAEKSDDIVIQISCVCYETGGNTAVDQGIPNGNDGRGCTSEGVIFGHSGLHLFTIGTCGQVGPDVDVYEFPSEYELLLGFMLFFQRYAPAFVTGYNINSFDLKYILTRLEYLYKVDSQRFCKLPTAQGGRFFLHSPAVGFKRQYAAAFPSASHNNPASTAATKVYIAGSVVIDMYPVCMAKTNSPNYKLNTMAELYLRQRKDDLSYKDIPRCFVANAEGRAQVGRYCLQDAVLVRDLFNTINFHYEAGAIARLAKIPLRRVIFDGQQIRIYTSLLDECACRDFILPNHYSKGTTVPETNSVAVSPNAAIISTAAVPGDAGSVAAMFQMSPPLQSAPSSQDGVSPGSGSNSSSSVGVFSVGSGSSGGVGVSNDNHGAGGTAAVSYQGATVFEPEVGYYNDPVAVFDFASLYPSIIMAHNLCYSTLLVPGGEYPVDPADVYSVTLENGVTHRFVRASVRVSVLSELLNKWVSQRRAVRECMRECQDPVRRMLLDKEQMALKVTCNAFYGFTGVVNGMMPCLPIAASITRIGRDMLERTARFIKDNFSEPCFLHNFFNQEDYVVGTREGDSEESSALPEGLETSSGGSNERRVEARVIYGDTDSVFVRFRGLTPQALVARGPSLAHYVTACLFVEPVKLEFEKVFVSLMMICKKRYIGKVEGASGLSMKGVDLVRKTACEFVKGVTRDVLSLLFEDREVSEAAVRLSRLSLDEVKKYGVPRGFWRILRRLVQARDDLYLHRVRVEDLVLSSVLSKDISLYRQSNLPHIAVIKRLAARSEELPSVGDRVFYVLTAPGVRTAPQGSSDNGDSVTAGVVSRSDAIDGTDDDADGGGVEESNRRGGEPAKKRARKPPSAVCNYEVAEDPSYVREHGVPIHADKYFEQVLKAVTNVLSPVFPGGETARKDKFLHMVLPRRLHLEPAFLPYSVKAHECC
Description: The HCMV polymerase assay is performed using a scintillation proximity assay (SPA) as described in several references, such as N. D. Cook, et al., Pharmaceutical Manufacturing International, pages 49-53 (1992); K. Takeuchi, Laboratory Practice, September issue (1992); U.S. Pat. No. 4,568,649 (1986); which are incorporated by reference herein. Reactions are performed in 96-well plates. The assay is conducted in 100 μl volume with 5.4 mM HEPES (pH 7.5), 11.7 mM KCl, 4.5 mM MgCl2, 0.36 mg/ml BSA, and 90 nM ^3 H-dTTP. Assays are run with and without CHAPS, (3-[(3-Cholamidopropyl)-dimethylammonio]-1-propane-sulfonate) at a final concentration of 2 mM. HCMV polymerase is diluted in enzyme dilution buffer containing 50% glycerol, 250 mM NaCl, 10 mM HEPES (pH 7.5), 100 μg/ml BSA, and 0.01% sodium azide. The HCMV polymerase, which is expressed in recombinant baculovirus-infected SF-9 cells and purified according to literature procedures, is added at 10% (or 10 μl) of the final reaction volume, i.e., 100 μl. Compounds are diluted in 50% DMSO and 10 μl are added to each well. Control wells contain an equivalent concentration of DMSO. Unless noted otherwise, reactions are initiated via the addition of 6 nM biotinylated poly(dA)-oligo(dT) template/primer to reaction mixtures containing the enzyme, substrate, and compounds of interest. Plates are incubated in a 25 C or 37 C H2 O bath and terminated via the addition of 40 μl/reaction of 0.5 M EDTA (pH 8) per well. Reactions are terminated within the time-frame during which substrate incorporation is linear and varied depending upon the enzyme and conditions used, i.e., 30 min. for HCMV polymerase. Ten μl of streptavidin-SPA beads (20 mg/ml in PBS/10% glycerol) are added following termination of the reaction. Plates are incubated 10 min. at 37 C, then equilibrated to room temperature, and counted on a Packard Topcount. Linear regressions are performed and IC50 's are calculated using computer software.
A modified version of the above HCMV polymerase assay is performed as described above, but with the following changes: Compounds are diluted in 100% DMSO until final dilution into assay buffer. In the previous assay, compounds are diluted in 50% DMSO. 4.5 mM dithiotherotol (DTT) is added to the polymerase buffer. […] Other viral polymerase assays are performed using procedures similar to those described above.

[4] = HCMV polymerase, modified SPA, compounds in 100% DMSO, 4.5 mM DTT added

Sequence of HSV polymerase (P04293 whole entry): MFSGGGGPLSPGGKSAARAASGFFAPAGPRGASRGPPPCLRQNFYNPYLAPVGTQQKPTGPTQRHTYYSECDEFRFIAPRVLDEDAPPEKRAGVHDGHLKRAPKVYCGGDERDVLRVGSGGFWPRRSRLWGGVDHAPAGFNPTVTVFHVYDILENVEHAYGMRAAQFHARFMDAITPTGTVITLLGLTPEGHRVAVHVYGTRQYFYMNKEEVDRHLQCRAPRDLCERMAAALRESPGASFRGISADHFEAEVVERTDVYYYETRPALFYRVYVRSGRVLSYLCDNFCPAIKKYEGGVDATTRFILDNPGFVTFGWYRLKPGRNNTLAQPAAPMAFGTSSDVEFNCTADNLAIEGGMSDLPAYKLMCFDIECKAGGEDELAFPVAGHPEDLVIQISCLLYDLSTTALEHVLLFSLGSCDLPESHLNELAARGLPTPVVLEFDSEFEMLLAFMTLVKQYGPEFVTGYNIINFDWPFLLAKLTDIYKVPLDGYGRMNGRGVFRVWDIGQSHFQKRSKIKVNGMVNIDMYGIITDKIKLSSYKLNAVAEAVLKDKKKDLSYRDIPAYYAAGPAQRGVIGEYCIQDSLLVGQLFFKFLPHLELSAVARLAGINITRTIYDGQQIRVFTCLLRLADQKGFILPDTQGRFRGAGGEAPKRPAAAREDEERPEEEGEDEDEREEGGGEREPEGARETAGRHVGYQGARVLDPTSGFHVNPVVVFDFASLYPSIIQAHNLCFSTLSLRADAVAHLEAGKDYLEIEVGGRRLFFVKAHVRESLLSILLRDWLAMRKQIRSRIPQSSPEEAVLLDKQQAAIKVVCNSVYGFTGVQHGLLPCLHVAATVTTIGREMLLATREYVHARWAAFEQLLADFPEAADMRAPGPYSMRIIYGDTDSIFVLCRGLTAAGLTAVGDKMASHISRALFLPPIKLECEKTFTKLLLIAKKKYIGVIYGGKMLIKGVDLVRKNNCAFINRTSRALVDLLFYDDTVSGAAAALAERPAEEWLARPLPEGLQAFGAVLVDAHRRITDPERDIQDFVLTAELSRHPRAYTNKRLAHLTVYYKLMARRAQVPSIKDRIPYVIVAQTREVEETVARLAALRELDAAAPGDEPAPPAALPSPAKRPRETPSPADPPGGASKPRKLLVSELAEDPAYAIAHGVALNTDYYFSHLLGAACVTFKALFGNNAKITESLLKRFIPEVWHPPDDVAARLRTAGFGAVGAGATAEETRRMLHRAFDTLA

| IC50 [1] | IC50 [2] | IC50 [3, 4] | IC50 [3] | Structure (SMILES) |
| --- | --- | --- | --- | --- |
| 1800 nM | 2000 nM | 500 nM | – | Cn1cc(C(=O)NCc2ccc(Cl)cc2)c(=O)c2cc(C(C)(C)CCO)ccc21 [Example 1, N-(4-chlorobenzyl)-6-(3-hydroxy-1,1-dimethylpropyl)-1-methyl-4-oxo-1,4-dihydro-3-quinolinecarboxamide] |
| – | – | 7800 nM | – | Cn1cc(C(=O)NCc2ccc(Cl)cc2)c(=O)c2cc(CO)ccc21 [Example 2, N-(4-Chlorobenzyl)-6-(hydroxymethyl)-1-methyl-4-oxo-1,4-dihydro-3-quinolinecarboxamide] |
| 740 nM | 440 nM | 400 nM | – | Cn1cc(C(=O)NCc2ccc(Cl)cc2)c(=O)c2cc(CN3CCOCC3)ccc21 [Example 3, N-(4-Chlorobenzyl)-1-methyl-6-(4-morpholinylmethyl)-4-oxo-1,4-dihydro-3-quinolinecarboxamide] |
| – | – | 370 nM | – | O=C(NCc1ccc(Cl)cc1)c1cn(CCO)c2ccc(CCCO)cc2c1=O [Example 4, N-(4-Chlorobenzyl)-1-(2-hydroxyethyl)-6-(3-hydroxypropyl)-4-oxo-1,4-dihydro-3-quinolinecarboxamide] |
| 320 nM | 410 nM | 480 nM | – | Cn1cc(C(=O)NCc2ccc(Cl)cc2)c(=O)c2cc(CCCO)ccc21 [Example 5, N-(4-Chlorobenzyl)-6-(3-hydroxypropyl)-1-methyl-4-oxo-1,4-dihydro-3-quinolinecarboxamide] |
| – | – | – | 2800 nM | CC(C)(C)n1cc(C(=O)NCc2ccc(Cl)cc2)c(=O)c2cc(CCCO)ccc21 [Example 6, 1-(tert-Butyl)-N-(4-chlorobenzyl)-6-(3-hydroxypropyl)-4-oxo-1,4-dihydro-3-quinolinecarboxamide] |
| – | – | 2500 nM | – | Cn1cc(C(=O)NCc2ccc(Cl)cc2)c(=O)c2cc(CN3CCSCC3)ccc21 [Example 7, N-(4-Chlorobenzyl)-1-methyl-4-oxo-6-(4-thiomorpholinyl-methyl)-1,4-dihydro-3-quinolinecarboxamide] |
| – | – | 2600 nM | – | Cn1cc(C(=O)NCc2ccc(Cl)cc2)c(=O)c2cc(CN3CCS(=O)(=O)CC3)ccc21 [Example 8, N-(4-chlorobenzyl)-6-[(1,1-dioxo-1',4-thiazinan-4-yl)methyl]-1-methyl-4-oxo-1,4-dihydro-3-quinolinecarboxamide] |
| – | – | 4700 nM | – | Cn1cc(C(=O)NCc2ccc(Cl)cc2)c(=O)c2cc(CN3CC[S+]([O-])CC3)ccc21 [Example 9, N-(4-chlorobenzyl)-1-methyl-4-oxo-6-[(1-oxo-1',4-thiazinan-4-yl)methyl]-1,4-dihydro-3-quinolinecarboxamide] |
| – | – | – | 1000 nM | Cn1cc(C(=O)NCc2ccc(Cl)cc2)c(=O)c2cc(CN3CCOCC3)cc(F)c21 [Example 10, N-(4-chlorobenzyl)-8-fluoro-1-methyl-6-(4-morpholinylmethyl)-4-oxo-1,4-dihydro-3-quinolinecarboxamide] |

— patent US6248736A, “4-oxo-1,4-dihydro-3-quinolinecarboxamides as antiviral agents” (Pharmacia & Upjohn Company, priority 1999, dated 2001)
